Reference: patent EP0464022B1, “INSULINOTROPIC HORMONE” (THE GENERAL HOSPITAL CORPORATION, priority 1989, dated 2000)

Key:
RINS-38 insulinoma cells = test: Cellular cAMP levels (Table 2); assay type: cell-based, rat; set-up: cAMP: unit not given here; settings: for stimulation of cAMP levels: even at 10^-11M; for cAMP: 10 minutes
Procedure: Cells were grown as described in Example 1, in […] culture dishes. Varying amounts of glucagon-like peptides were added to culture wells in triplicate. After permitting incubation for 10 minutes, the total cell media was examined for cAMP, and the concentration of cAMP was determined. Twenty microliters from each culture well was assayed.

[1] = Stability in culture medium (HPLC and radioimmunoassay); assay type: in vitro ADME; settings: 24 hr; conditioned medium containing 01% bovine serum albumin
Procedure: To assess the stability of the […] peptide in the experimental conditions, GLP-1 (1-37) was incubated for 24 hr in culture medium alone or in medium supplemented with either 0.1% bovine serum albumin or 10% fetal bovine serum. Aliquots of media were analyzed by high-pressure liquid chromatography and radioimmunoassay.

[2] = system: insulinoma cell line RIN 1046-38; test: cAMP formation in insulinoma cell line; assay type: cell-based, rat; settings: for effects on the formation of cAMP: 5 nM and 50 pM; for effect on cAMP levels: 0.5 µM
Procedure: Cells were incubated for 10 minutes in the presence of 0, 10^-11, 10^-9, or 10^-7M peptides.

rat pancreas = test: Pancreatic perfusion assay of insulinotropic activity (isolated perfused rat pancreas, insulin radioimmunoassay); assay type: in vivo
Description: The insulinotropic property of a compound may be determined by providing that compound to animal cells, or injecting that compound into animals and monitoring the release of immunoreactive insulin (IRI) into the media or circulatory system of the animal, respectively. The presence of IRI is detected through the use of a radioimmunoassay which can specifically detect insulin. Although any radioimmunoassay capable of detecting the presence of IRI may be employed, It is preferable to use a modification of the assay method of Albano, J.D.M., et al., (Acta Endocrinol. 70:487-509 (1972)). In this modification, a phosphate/albumin buffer with a pH of 7.4 was employed. The incubation was prepared with the consecutive condition of 500 µl of phosphate buffer, 50 µl of perfusate sample or rat insulin standard in perfusate, 100 µl of anti-insulin antiserum (Wellcome Laboratories; 1:40,000 dilution), and 100 µl of [^125I] insulin, giving a total volume of 750 µl in a 10 x 75-mm disposable glass tube. After incubation for 2-3 days at 4°C, free insulin was separated from antibody-bound insulin by charcoal separation. The assay sensitivity was 1-2 µU/ml.
The insulinotropic property of a compound may also be determined by pancreatic infusion. The in situ isolated perfused rat pancreas preparation was a modification of the method of Penhos, J.C., et al. (Diabetes 18:733-738 (1969)). In accordance with such a method, fasted rats (preferably male Charles River strain albino rats), weighing 350-600 g, are anesthetized with an intraperitoneal injection of Amytal Sodium (Eli Lilly and Co., 160 ng/kg). Renal, adrenal, gastric, and lower colonic blood vessels are ligated. The entire intestine is resected except for about four cm of duodenum and the descending colon and rectum. […] The perfusate is preferably a modified Krebs-Ringer bicarbonate buffer with 4% dextran T70 and 0.2% bovine serum albumin (fraction V), and is preferably bubbled with 95% O2 and 5% CO2. A nonpulsatile flow, four-channel roller-bearing pump (Buchler polystatic, Buchler Instruments Division, Nuclear-Chicago Corp.) is preferably used, and a switch from one perfusate source to another is preferably accomplished by switching a three-way stopcock.
Isolated rat pancreas was prepared according to the method of Weir, G.C., et al., (J. Clin. Invest. 54:1403-1412 (1974)), and Penkos, J.C., et al. (Diabetes 18:733-738 (1969)). The perfusate contained bicarbonate buffer (pH 7.4) and 120 mg/dl glucose, 4% dextran T-70, and 0.2% bovine serum albumin, and was equilibrated with 95% oxygen and 5% carbon dioxide. The first 20 minutes of each perfusion was an equilibrium period. After this initial period, aliquots of perfusate were removed every 2-4 min for additional 20 min, thus allowing the system to equilibrate for a total of 40 min. The perfusion, including any added insulinotropic peptide, was for 6 min and samples were collected at 1-min intervals. When more than one perfusion was to be performed, the peptide perfusions were followed by equilibration periods of 20 min, during which four samples 5 min apart were collected. […] Again, samples 1 min apart were collected. The entire perfusion time was between 70 and 85 mm.
In each aliquot of perfusate obtained, insulin was determined by radioimmunoassay.

[3] = system: Rat insulinoma cells of cell line RIN-38; test: mRNA levels by Northern hybridization in insulinoma cells; assay type: cell-based; settings: peptide 10^-7M; 25 mM glucose
Procedure: The cells were maintained in DMEM (Gibco) at a glucose concentration of 4,500 mg/L and supplemented with 10% heat-inactivated fetal bovine serum (Gibco), 100 U/ml of penicillin and 100 µg/ml of streptomycin. Incubations were carried out at 37°C in 95% air:5% CO2. Cells grown in the above manner were washed and resuspended in DMEM (Gibco) containing 0.1% bovine serum albumin and 25 mM glucose. […] In all cases, the concentration of peptides was 10^-7M. Incubations were for six hours.
Messenger RNAs specific for insulin, actin, or angiotensinogen were identified by Northern hybridization as follows: cellular RNA was extracted from solid tumors and cells by homogenization in guanidine thiocyanate and sedimentation through a cesium chloride cushion. Poly A^+ RNA was isolated by oligo dT cellulose chromatography (Aviv, H., et al., Proc. Natl. Acad. Sci., USA 69:1408-1412 (1972)). Twenty micrograms of total RNA from each sample were fractionated by size on a 1.4% agarose gel after denaturation in glyoxal, followed by electrotransfer to a nylon membrane (Nytran; Schleicher and Schuell). […] The relative amounts of the specific mRNA were determined by microdensitometry.

Q: Which “stimulation of cAMP levels” value (RINS-38 insulinoma cells) does the source give for “GLP-1 (1-37): GLP-1 polypeptide having all amino acids from 1 (N-terminus) through 37 (C-terminus)” here?
A: neither GLP-1 (1-37) nor GLP-II exhibited such activity

Q: What about the cAMP (RINS-38 insulinoma cells; peptide 10^-6 M) of the same substance?
A: 170

Q: And the cAMP (RINS-38 insulinoma cells; peptide 10^-7 M)?
A: 120

Q: What about the cAMP (RINS-38 insulinoma cells; peptide 10^-8 M) of the same substance?
A: 160

Q: What about the cAMP (RINS-38 insulinoma cells; peptide 10^-9 M) of the same substance?
A: 100

Q: What about the cAMP (RINS-38 insulinoma cells; peptide 10^-10 M) of the same substance?
A: 90

Q: And the cAMP (RINS-38 insulinoma cells; peptide 10^-11 M)?
A: 90

Q: And the “stability: cleavage after incubation” value [1]?
A: a small peak of GLP-1 (7-37) appeared

Q: And the biological half-life (Biological half-life)?
A: 30-50 minutes

Q: What about the “effects on the formation of cAMP” value [2] of the same substance?
A: negligible

Q: And the “effect on cAMP levels” value [2]?
A: increased cAMP levels

Q: What about the “increase in serum insulin concentrations” value (rat pancreas; 5 x 10^-7M) of the same substance?
A: 3.4 fold

Q: And the “Insulin Produced” value (rat pancreas; 5x10^-7M, 0 minutes (before peptide added))?
A: 1,400 picograms/ml

Q: And the “Insulin Produced” value (rat pancreas; 5x10^-7M, 1 minute)?
A: 4,700 picograms/ml

Q: And the “Insulin Produced” value (rat pancreas; 5x10^-7M, 2 minutes)?
A: 2,900 picograms/ml

Q: What about the “Insulin Produced” value (rat pancreas; 5x10^-7M, 3 minutes) of the same substance?
A: 2,200 picograms/ml

Q: And the “increase in serum insulin levels” value (rat pancreas; 5 x 10^-8M)?
A: two-fold

Q: What about the “Insulin Produced” value (rat pancreas; 5x10^-8M, 0 minutes (before peptide added)) of the same substance?
A: 3,000 picograms/ml

Q: And the “Insulin Produced” value (rat pancreas; 5x10^-8M, 1 minute)?
A: 6,000 picograms/ml

Q: And the “Insulin Produced” value (rat pancreas; 5x10^-8M, 2 minutes)?
A: 2,000 picograms/ml

Q: And the “Insulin Produced” value (rat pancreas; 5x10^-8M, 3 minutes)?
A: 2,000 picograms/ml

Q: And the “increase in serum insulin levels” value (rat pancreas; 5 x 10^-10M)?
A: 20%

Q: What about the “Insulin Produced” value (rat pancreas; 5x10^-10M, 0 minutes (before peptide added)) of the same substance?
A: 500 picograms/ml

Q: What about the “Insulin Produced” value (rat pancreas; 5x10^-10M, 1 minute) of the same substance?
A: 600 picograms/ml

Q: What about the “Insulin Produced” value (rat pancreas; 5x10^-10M, 2 minutes) of the same substance?
A: 640 picograms/ml

Q: What about the “Insulin Produced” value (rat pancreas; 5x10^-10M, 3 minutes) of the same substance?
A: 430 picograms/ml

Q: And the “effect on insulin levels” value (rat pancreas; 5 x 10^-11M)?
A: without effect

Q: And the “Insulin Produced” value (rat pancreas; 5x10^-11M, 0 minutes (before peptide added))?
A: 340 picograms/ml

Q: What about the “Insulin Produced” value (rat pancreas; 5x10^-11M, 1 minute) of the same substance?
A: 180 picograms/ml

Q: And the “Insulin Produced” value (rat pancreas; 5x10^-11M, 2 minutes)?
A: 230 picograms/ml

Q: And the “Insulin Produced” value (rat pancreas; 5x10^-11M, 3 minutes)?
A: 340 picograms/ml

Q: What about the “Insulin Produced” value (rat pancreas; 5x10^-12M, 0 minutes (before peptide added)) of the same substance?
A: 50 picograms/ml

Q: And the “Insulin Produced” value (rat pancreas; 5x10^-12M, 1 minute)?
A: 50 picograms/ml

Q: And the “Insulin Produced” value (rat pancreas; 5x10^-12M, 2 minutes)?
A: 160 picograms/ml

Q: And the “Insulin Produced” value (rat pancreas; 5x10^-12M, 3 minutes)?
A: 50 picograms/ml

Q: What about the insulinotropic activity (rat pancreas; 10^-11 M, five minute perfusion) of the same substance?
A: inactive

Q: What about the insulin-releasing activity (rat pancreas; even at concentrations as high as 5 X 10^-7M) of the same substance?
A: no insulin-releasing activity

Q: What does the source list for “GLP-1-(1-36)-NH2: GLP-1 (1-36 des-gly-arg amide); Peninsula Laboratories”?
A: effects on the formation of cAMP [2]: negligible; effect on cAMP levels [2]: increased cAMP levels

Q: With “GLP-II: glucagon-like peptide 2 (GLP-2) (HADGSFSDEMNTILDNLAARDFINWLIQTKITD; Glucagon-like peptide 2; UniProt P01275 146-178, looked up)” as the substance, how does the “stimulation of cAMP levels” value (RINS-38 insulinoma cells) read?
A: neither GLP-1 (1-37) nor GLP-II exhibited such activity

Q: And the “effect on insulin mRNA levels” value [3]?
A: no effects
